Where “and” joins values, the source holds several entries; their conditions need not be identical. Identical values can stand only once. Like-named read-outs stand apart in the source and are kept apart here. One block for each compound: values may come before it.
How the values were obtained:
mutant desminL385P = target: T1, mutant desminL385P (Homo sapiens, UniProt P17661, L385P); assay: WB degradation of mutant desmin in HeLa cells; format: cell-based; settings: exogenously expressed
T1 construct: expressed in transfected cells; host or cells: HeLa, transient
T1 sequence (P17661 whole entry L385P): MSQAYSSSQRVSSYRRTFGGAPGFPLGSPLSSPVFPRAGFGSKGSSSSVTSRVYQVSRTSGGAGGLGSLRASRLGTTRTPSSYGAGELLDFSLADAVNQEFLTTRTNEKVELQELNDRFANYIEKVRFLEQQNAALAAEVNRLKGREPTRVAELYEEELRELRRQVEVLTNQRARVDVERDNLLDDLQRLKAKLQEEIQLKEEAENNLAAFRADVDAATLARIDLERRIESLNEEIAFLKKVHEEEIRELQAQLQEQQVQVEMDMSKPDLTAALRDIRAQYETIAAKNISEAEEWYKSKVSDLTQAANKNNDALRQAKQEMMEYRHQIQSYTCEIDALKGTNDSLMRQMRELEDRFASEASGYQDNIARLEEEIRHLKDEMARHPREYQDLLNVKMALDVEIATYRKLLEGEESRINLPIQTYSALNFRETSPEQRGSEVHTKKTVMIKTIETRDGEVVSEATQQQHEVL
Description: (§1) Adherent cells were washed with phosphate-buffered saline (PBS) and cell pellets were lysed in SDS-based sample buffer (277.8 mM Tris-HCI, pH 6.8, 4.4% LDS, 44.4% (v/v) glycerol) containing beta-mercaptoethanol. Alternatively, cell pellets or protein supernatants were lysed in 5X Laemmli sample buffer. Whole-cell lysates were separated using SDS-PAGE, and transferred onto polyvinyllidene difluoride membranes at 100 V for 2 h at 4 °C. The membrane was incubated with a blocking solution consisting 4% skim milk in PBS solution for 30 min at room temperature and incubated with primary antibodies overnight, followed by incubation with host-specific HRP-conjugated secondary antibodies (1:10000 dilution). For signal detection, the membrane was developed with a mixture of ECL solution (Thermo Fisher Scientific) using X-ray films. Densitometry of developed bands was measured and analyzed with ImageJ (NIH, Bethesda).
Supplementary Fig. 5. AUTOTACs selectively target pathological aggregation-prone proteins for autophagic degradation. (a) WB in HEK293T cells treated with PBA-1105 (1 μM) and MG132 (1 μM, 24 h) at the indicated time points. (b) ICC of HeLa cells treated with the indicated compounds (1 μM, 24 h). Scale bar, 10 μm. (c) WB in HEK293T cells treated with PBA-1105 (500 nM, 24 h) and MG132 (1 μM, 24 h) under siRNA-mediated knockdown of p62 or ATG7 (20 nM, 48 h). (d) ICC in HeLa cells transiently expressing WIPI2-GFP and treated with Anle138b-F105 (1 μM, 24 h). Scale bar, 10 μm. (e) ICC in HeLa cells treated with […]
nM, 24 h). (g, h) WB in HeLa cells transiently expressing wild type or mutant (L385P) desmin-flag with LacZ-myc and treated with PBA-1105, PBA-1105b or Anle138b-F105 at the […]

[1] = WST-based cell viability assay in ACHN cells; settings: human, ACHN cells; for viability at 0.01 µM / viability at 0.1 µM / viability at 1 µM / viability at 10 µM / viability at 50 µM / viability at 100 µM: ACHN
ACHN cells = assay: Wound healing assay in ACHN cells; format: cell-based; settings: wound healing, compared with p62-binding moiety or TBL
Description: To analyze cell migration in two dimensions, U-87 MG or ACHN cells were plated to a monolayer. Cells were scratched with a sterile 10 μl pipette tip and the debris was removed using medium. Cells were treated with compounds and incubated for different time to monitor cell behavior. Photographs were obtained using a microscope at different time point.

[2] = target: T2, estrogen receptor beta (ERβ) (Homo sapiens, UniProt Q92731); assay: Western blot degradation of ERβ; format: cell-based; settings: for ERβ band normalized to control, AVG % / ERβ band (PHTPP) normalized to GAPDH and to control, percentage: 293T; for ERβ band normalized to control, AVG % / ERβ band (PHTPP) normalized to GAPDH and to control, percentage / DC50: 24 h; for ERβ band (PHTPP) normalized to GAPDH and to control, percentage: single experiments
T2 construct: Targeted autophagic degradation of endogenous oncoproteins by AUTOTAC; endogenous in cells; host or cells: HEK293T, ACHN, MCF7
T2 sequence (Q92731 whole entry): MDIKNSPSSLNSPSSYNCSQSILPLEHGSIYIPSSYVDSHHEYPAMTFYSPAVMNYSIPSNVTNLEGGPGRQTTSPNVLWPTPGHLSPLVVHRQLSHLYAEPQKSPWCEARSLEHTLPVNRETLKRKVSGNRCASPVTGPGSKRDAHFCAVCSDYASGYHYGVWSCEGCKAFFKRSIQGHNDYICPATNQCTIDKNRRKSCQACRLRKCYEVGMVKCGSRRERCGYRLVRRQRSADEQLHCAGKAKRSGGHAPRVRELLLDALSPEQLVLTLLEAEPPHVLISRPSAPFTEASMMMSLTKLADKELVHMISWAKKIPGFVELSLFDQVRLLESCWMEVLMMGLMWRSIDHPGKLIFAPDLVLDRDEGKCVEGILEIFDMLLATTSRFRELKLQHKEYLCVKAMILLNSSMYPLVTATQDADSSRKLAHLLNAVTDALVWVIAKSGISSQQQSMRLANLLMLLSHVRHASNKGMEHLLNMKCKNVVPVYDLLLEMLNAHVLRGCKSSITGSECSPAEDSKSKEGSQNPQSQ
Description: as §1

[3] = system: AR pathways (EGFR, p-Akt/Akt); assay: WB of AR downstream signaling in DHT-activated cells; format: cell-based; settings: levels of EGFR and p-Akt/Akt
From the text: To assess the therapeutic efficacy of autophagy-targeting degraders, we compared the downstream signaling of AR and ERβ in cells treated with either AUTOTACs or their cognate TBLs. Dihydrotestosterone (DHT) and estradiol (E2) are natural agonists that respectively bind AR and ERβ and induce their dimerization and nuclear translocation, resulting in transcriptional activation of downstream proteins[27],[28]. […] Next, we examined the potency of AUTOTACs in cancer cell growth and progression.
Adherent cells were washed with phosphate-buffered saline (PBS) and cell pellets were lysed in SDS-based sample buffer (277.8 mM Tris-HCI, pH 6.8, 4.4% LDS, 44.4% (v/v) glycerol) containing beta-mercaptoethanol. Alternatively, cell pellets or protein supernatants were lysed in 5X Laemmli sample buffer. Whole-cell lysates were separated using SDS-PAGE, and transferred onto polyvinyllidene difluoride membranes at 100 V for 2 h at 4 °C.

[4] = duplicates, read-out: WST assay viability relative to con = 100
[5] = read-out: WST assay viability, AVG %

SMILES: O=C(CCCc1ccccc1)NCCOCCOCCOCCNCc1ccc(OCc2ccccc2)c(OCc2ccccc2)c1 [PBA-1105]
degradation of mutant desminL385P (mutant desminL385P): induced the degradation

ERβ band normalized to control, AVG % ([2]; 1nM): 52.5102%
ERβ band (PHTPP) normalized to GAPDH and to control, percentage ([2]; 1nM): 58.6192% and 52.1272% and 46.7843%
ERβ band normalized to control, AVG % ([2]; 10nM): 17.5552%
ERβ band (PHTPP) normalized to GAPDH and to control, percentage ([2]; 10nM): 19.5411% and 16.0071% and 17.1174%
ERβ band normalized to control, AVG % ([2]; 100nM): 4.912%
ERβ band (PHTPP) normalized to GAPDH and to control, percentage ([2]; 100nM): 9.1943% and 5.039% and 0.5025%
ERβ band normalized to control, AVG % ([2]; 1uM): 9.556%
ERβ band normalized to control, AVG % ([2]; 2.5uM): 4.237%
ERβ band (PHTPP) normalized to GAPDH and to control, percentage ([2]; 2.5uM): 4.5765% and 5.279% and 2.856%
DC50 ([2]; ACHN renal carcinoma cells, read-out: DC50 of ERβ): < 0.1 µM
Dmax, 24 hr (concentration of maximal clearance at the 24 h mark) of ERβ ([2]; HEK293T cells): 10 to 100 nM
DC50 ([2]; HEK293T cells, read-out: DC50 (half-degrading concentration) of ERβ): ~0.002 µM and 0.00148 µM
degradation of ERβ under RNA interference of either p62 or ATG5 ([2]; HEK293T, 0.1 μM 24 h, siRNA 40 nM 48 h): completely abolished
persistence of ERβ degradation post-washout ([2]; MCF7, MG132 1 μM, compound 500 nM 24 h, then washout): at least 8 h
DC50 and Dmax values of ERβ degradation ([2]; MCF7 cells, proteasomal inhibition (MG132 1 μM, 24 h)): subnanomolar
DC50 ([2]; MCF-7 breast cancer cells, read-out: DC50 of ERβ): < 0.1 µM
SMILES: O[C@H](CNCCOCCOCCOc1ccc(-c2c(-c3ccccc3)nn3c(C(F)(F)F)cc(C(F)(F)F)nc23)cc1)COc1ccc(OCc2ccccc2)c(OCCCc2ccccc2)c1 [PHTPP-1304]
viability at 0.01 µM [1, 4]: 101%
viability at 0.01 µM [1, 5]: 99.6%
viability at 0.1 µM [1, 4]: 102%
viability at 0.1 µM [1, 5]: 101%
viability at 1 µM [1, 4]: 96.2%
viability at 1 µM [1, 5]: 96.2%
viability at 10 µM [1, 4]: 2.13%
viability at 10 µM [1, 5]: 2.08%
viability at 50 µM [1, 4]: 12.3%
viability at 50 µM [1, 5]: 11.6%
viability at 100 µM [1, 4]: 14.8%
viability at 100 µM [1, 5]: 15.8%
IC50 ([1]; WST-based viability assay, read-out: cytotoxicity IC50): 3.3 µM
inhibition of cell migration (ACHN cells): more efficiently inhibited cell migration

SMILES: C=CC(C)(O)C(=O)N(C(=O)NCCOCCOCCNCC(O)COc1ccc(OCCc2ccccc2)c(OCCc2ccccc2)c1)c1cc(Cl)cc(Cl)c1 (centres unmarked) [VinclozolinM2-2204]
inhibition of AR pathways relative to its TBL [3]: approximately 4 folds

— publication PMC8850458, “The AUTOTAC chemical biology platform for targeted protein degradation via the autophagy-lysosome system” (Nature Communications, 2022)
